Test results: patent publication US10640802B2 (priority 2012, dated 2020)
Entries after “also recorded” stand apart in the source; their conditions may differ. Read-outs that look alike come from different tables or passages of the source.

Columns and labels:
[1] = tested on: E. coli AW3110 biosensor cells
[2] = target: Acidithiobacillus ferrooxidans AfArsR repressor, wild type (Acidithiobacillus ferrooxidans, UniProt B7J952); format: biochemical; conditions: pH 7.5
[3] = target: T1, Acidithiobacillus ferrooxidans AfArsR variant C102S (Cys102 to serine) (Acidithiobacillus ferrooxidans, UniProt B7J952, C102S); conditions: previously observed; cited from earlier work
[4] = tested on: Acidithiobacillus ferrooxidans AfArsR variant C102S (Cys102 eliminated by mutation; pBADarsR / parsO-gfp biosensor in E. coli AW3110); format: cell-based
[5] = target: T1, Acidithiobacillus ferrooxidans AfArsR variant C102S (Cys102 to serine); format: biochemical
[6] = tested on: Acidithiobacillus ferrooxidans AfArsR, wild type (pBADarsR / pACYC184-parsO-gfp biosensor in E. coli AW3110); format: cell-based
[7] = tested on: C102S biosensor co-cultured with Burkholderia sp. MR1; format: cell-based, E. coli / Burkholderia sp. MR1
[8] = tested on: C102S mutant biosensor (E. coli strain AW3110); format: cell-based
[9] = tested on: AfarsR-gfp biosensor (E. coli strain AW3110 bearing pBADarsR and pACYC184-parsO-gfp); format: cell-based
wild type AfArsR = format: binding, Acidithiobacillus ferrooxidans
AfArsR C102S mutant = format: binding, Acidithiobacillus ferrooxidans
[10] = read-out: apparent half maximal concentration required for induction

T1 sequence (B7J952 1-118 C102S): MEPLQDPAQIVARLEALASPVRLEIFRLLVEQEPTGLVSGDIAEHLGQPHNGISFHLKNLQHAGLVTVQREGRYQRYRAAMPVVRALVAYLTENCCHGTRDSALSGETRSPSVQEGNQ
Sequence of Acidithiobacillus ferrooxidans AfArsR repressor, wild type (B7J952 1-118): as the sequence (B7J952 1-118 C102S) above, with S102C counted along it

In the case of `O[As](O)O` [As(III), arsenite], the “decrease in cellular fluorescence and growth” value [1] is reported as no less than 40 pM, the EC50 ([2]; read-out: concentration required to decrease anisotropy of AfArsR-DNA complex (half-maximal)) is reported as roughly 10 µM and the EC50 ([2]; read-out: half-maximal concentration decreasing anisotropy of AfArsR-DNA complex) is reported as roughly 10 µM. The “reduction of affinity by substitution of Cys102 with serine” value [3] was “nearly an order of magnitude”, the “induction / derepression of gfp expression” value (from here on “induction / derepression”) [4] was “not responsive; also recorded: did not respond” and the “response to As(III)” value [4] was “no response”. The “binding / recognition by C102S” value [5] was “lack of binding; also recorded: no longer recognizes; also recorded: lost its binding ability”, the “response (anisotropy)” value [5] was “little response” and the “concentrations sensed by the original biosensor” value [6] was “micromolar concentrations”. The “induction / derepression” value [6] was “derepressed gfp expression; also recorded: dissociated AfArsR from pars, derepressing gfp expression; also recorded: induced gfp expression”, the “linear response around concentration” value [6] was roughly 10 ppb and the “response of the biosensor” value [6] was “practically no response”.
For `C[As](O)O` [MAs(III), methylarsenite], the “toxic at concentrations in excess of” value [1] was > 10^−5 M, the “induction / derepression” value [4] was “proportional to the concentration of the inducer; also recorded: high levels of fluorescence” and the EC50 ([4]; read-out: apparent half maximal concentration for induction) was roughly 3 µM. For the same compound, the “binding / recognition by C102S” value [5] was “still senses; also recorded: same binding affinity”, the “response (anisotropy), concentration range” value [5] was “sub-micromolar range” and the “response to MAs(III), Rox(III) and PhAs(III) relative to wild type” value [5] was “slightly higher than the wild type”. For the same compound, the “induction / derepression” value [6] was “proportional to the concentration of the inducer; also recorded: induced gfp expression” and the EC50 [6, 10] was roughly 3 µM.
With `O=[As](O)(O)c1ccccc1` [PAA, phenylarsonic acid] the “response of biosensor co-cultured with Burkholderia” value [7] was “didn't respond”.
For `O=[N+]([O-])c1cc([As](=O)(O)O)ccc1O` [Rox(V), 3-nitro-4-hydroxybenzenearsonic acid], the “biosensor response (gfp derepression)” value [8] was “unresponsive”, the “response of biosensor co-cultured with Burkholderia” value [7] was “didn't respond; also recorded: didn't show fluorescent” and the “biosensor response (gfp derepression)” value [9] was “unresponsive”.
For Sb(III) [listing 1 of 2 here], the “induction of gfp expression” value [9] was “induced gfp expression”.
In the case of Sb(III) [listing 2 of 2 here], the “induction / derepression” value [6] is reported as “induced gfp expression”.
In the case of arsenate [As(V)], the “effect on anisotropy of the AfArsR-DNA complex” value (wild type AfArsR) is reported as “no effect”.
With arsenite [As(III)] the “biosensor response (gfp derepression)” value [8] was “did not respond”, the “response of Cys102-lacking biosensor” value [8] was “no response” and the “response of mutant biosensor” value [8] was “no response”. For the same compound, the “response to addition of arsenite” value [8] was “not responsive”, the “binding by purified AfArsR C102S mutant” value (AfArsR C102S mutant) was “lost its binding ability” and the “response of C102S AfArsR (anisotropy)” value (AfArsR C102S mutant) was “little response”. The EC50 (wild type AfArsR; read-out: half-maximal concentration for decrease of anisotropy) was roughly 10 µM, the biosensor response [9] was “practically no response” and the “biosensor response (gfp derepression)” value [9] was “induced”. For the same compound, the “concentration around which the response is linear” value [9] was roughly 10 ppb, the “gfp expression upon addition of arsenite” value [9] was “derepressed gfp expression; also recorded: derepressing gfp expression” and the “induction of gfp expression” value [9] was “induced gfp expression”. For the same compound, the EC50 [9, 10] was roughly 10 µM.
